Reference: patent EP1135374B9, “BENZIMIDAZOLE COMPOUNDS THAT ARE VITRONECTIN RECEPTOR ANTAGONISTS” (SCHERING CORPORATION, priority 1998, dated 2000)

What was measured:
[1] = target: purified αllbβ3 receptor (Homo sapiens, UniProt P05106+P08514); test: similar competitive binding assay with 125I-echistatin on αllbβ3 receptor, used for the specificity index; conditions: specificity index IC50 αllbβ3/ IC50 αvβ3; for Specificity α11bβ3 / αvβ3: Table 13; for Specificity αIIβ3 / αvβ3: Table 14
Method: To measure the relative affinity of the test compounds for αvβ3 receptors versus affinity for αllbβ3 receptors, similar competitive assays were carried out using purified αllbβ3 receptor and ^125I-echistatin (iodinated using the lactoperoxidase method). The specificity index, which is a measure of the relative binding affinity for αvβ3, versus αllbβ3, may be determined by dividing the IC50 value for αllbβ3 by the IC50 value for αvβ3.

[2] = target: T1, αvβ3 receptor (purified from human placenta) (Homo sapiens, UniProt P05106+P06756); test: competition radioligand binding assay, 125I-echistatin to αvβ3 receptor; conditions: αvβ3, inhibition of specific 125I-echistatin binding
T1 construct: αvβ3 receptor (purified from human placenta); from tissue; host or cells: human placenta
Method: The following assay procedure, which is a competition radioligand binding assay, was carried out to determine the activity of the foregoing compounds as αvβ3 antagonists. The competitive assay procedure described in Kumar, et. al., "Biochemical Characterization Of The Binding Of Echistatin To Integrin αvβ3 Receptor", Journal Of Pharmacology And Experimental Therapeutics, Vol. 283, No. 2, pp. 843-853 (1997) was employed. Thus, binding of ^125I-echistatin (radiolabeled by the chloramine-T method to a specific activity of 2000 Ci/mmol (Amersham, Chicago, Il.)) to αvβ3 receptor (purified from human placenta), both prepared as described in Kumar, et al., was competed by the compounds prepared in the foregoing examples. Purified αvβ3 receptor was coated onto Microlite-2 plates at a concentration of 50 ng/well. ^125I-echistatin was added to the wells to a final concentration of 0.05 nM in binding buffer (50 µl/well) in the presence of the competing test compound. The competing test compounds were employed at serially diluted concentrations ranging from 1 pM to 100 nM. After a 3 hour incubation at room temperature, the wells were washed, and radioactivity, reflecting binding by ^125 I-echistatin to αvβ3 receptors, was determined with Top Count (Packard). Each data point is an average of values from triplicate wells.
Specific binding of ^125I-echistatin was calculated as the difference between the amount of ^125I-echistatin bound in the absence (total binding) and the amount of ^125I-echistatin bound in the presence of a 200-fold molar excess of unlabeled echistatin (nonspecific binding). The efficacy of the test compounds for inhibiting specific binding of ^125I-echistatin to αvβ3 receptors was determined by plotting a graph of specific binding (y-axis) as a function of test compound concentration (x-axis). The concentration of test compound required to inhibit 50% of the specific binding (IC50) was determined from the plot. The IC50 may be directly converted mathematically to Ki, which is a measure of the receptor binding affinity of the compounds under the defined assay conditions.

CC(=O)N(Cc1ccc(C(=O)NC[C@H](NC(=O)OCc2ccccc2)C(=O)O)cc1)C(C)c1nc2ccccc2[nH]1 (stereo partly drawn) [Example 5-76]
SPECIFICITY αIIbβ3 / αvβ3 ([1]; Table 15): 6.7 | IC50 ([2]; Table 15): 50 nM

O=C(N[C@@H](CNC(=O)c1ccc(CN(Cc2nc3ccccc3[nH]2)C(=O)C2CCCCC2)cc1)C(=O)O)OCc1ccccc1 [Example 5-15]
SPECIFICITY αIIbβ3 / αvβ3 ([1]; Table 10): 95 | IC50 ([2]; Table 10): 4.3 nM

COCC(=O)N(Cc1ccc(C(=O)NC(CC(=O)O)c2ccccc2)cc1)Cc1nc2ccccc2[nH]1 (stereo not drawn) [Example 5-67]
Specificity α11bβ3 / αvβ3 [1]: 0.5 | IC50 ([2]; Table 13): 7370 nM

CCOC(=O)[C@H](Cc1ccccc1)NC(=O)N(Cc1ccc(C(=O)NC[C@H](NC(=O)OCc2ccccc2)C(=O)O)cc1)Cc1nc2ccccc2[nH]1 [Example 5-52]
SPECIFICITY αIIbβ3 / αvβ3 ([1]; Table 10): 448 | IC50 ([2]; Table 10): 4 nM

CC(=O)OC(C(=O)N(Cc1ccc(C(=O)NC[C@H](NC(=O)OCc2ccccc2)C(=O)O)cc1)Cc1nc2ccccc2[nH]1)c1ccccc1 (stereo partly drawn) [Example 5-18]
SPECIFICITY αIIbβ3 / αvβ3 ([1]; Table 10): 82 | IC50 ([2]; Table 10): 4.4 nM

O=C(N[C@H](CNC(=O)c1ccc(CN(Cc2nc3ccccc3[nH]2)C(=O)CCc2ccccc2)cc1)C(=O)O)OCc1ccccc1 [Example 5-59]
Specificity αllbβ3 / αvβ3 ([1]; Table 11): 65 | IC50 ([2]; Table 11): 129 nM

O=C(N[C@@H](CNC(=O)c1ccc(CN(Cc2nc3ccccc3[nH]2)C(=O)Nc2cccc3ccccc23)cc1)C(=O)O)OCc1ccccc1 [Example 5-37]
SPECIFICITY αIIbβ3 / αvβ3 ([1]; Table 10): 203 | IC50 ([2]; Table 10): 5.3 nM

CCOC(=O)c1ccc(NC(=O)N(Cc2ccc(C(=O)NC[C@H](NC(=O)OCc3ccccc3)C(=O)O)cc2)Cc2nc3ccccc3[nH]2)cc1 [Example 5-47]
SPECIFICITY αIIbβ3 / αvβ3 ([1]; Table 10): 1252 | IC50 ([2]; Table 10): 2.2 nM

CCOC(=O)CCC(=O)N(Cc1ccc(C(=O)NC[C@H](NC(=O)OCc2ccccc2)C(=O)O)cc1)Cc1nc2ccccc2[nH]1 [Example 5-17]
SPECIFICITY αIIbβ3 / αvβ3 ([1]; Table 10): 76 | IC50 ([2]; Table 10): 4.6 nM

CC(NC(=O)N(Cc1ccc(C(=O)NC[C@H](NC(=O)OCc2ccccc2)C(=O)O)cc1)Cc1nc2ccccc2[nH]1)c1cccc2ccccc12 (stereo partly drawn) [Example 5-36]
SPECIFICITY αIIbβ3 / αvβ3 ([1]; Table 10): 129 | IC50 ([2]; Table 10): 11.7 nM

CC(C)NC(=O)N(Cc1ccc(C(=O)NC[C@H](NC(=O)OCc2ccccc2)C(=O)O)cc1)Cc1nc2ccccc2n1C [Example 5-93]
Specificity αllbβ3 / αvβ3 ([1]; Table 16): 124 | IC50 ([2]; Table 16): 6.7 nM

COCC(=O)N(Cc1ccc(C(=O)NC[C@@H](NC(=O)OCc2ccccc2)C(=O)O)cc1)Cc1nc2ccccc2[nH]1 [Example 5-58]
Specificity αllbβ3 / αvβ3 ([1]; Table 11): 46 | IC50 ([2]; Table 11): 118 nM

O=C(N[C@@H](CNC(=O)c1ccc(CN(Cc2nc3ccccc3[nH]2)C(=O)Nc2ccc(Cl)cc2)cc1)C(=O)O)OCc1ccccc1 [Example 5-35]
SPECIFICITY αIIbβ3 / αvβ3 ([1]; Table 10): 240 | IC50 ([2]; Table 10): 8.1 nM

CC(C)C(=O)N(Cc1ccc(C(=O)NC[C@H](NC(=O)OCc2ccccc2)C(=O)O)cc1)Cc1nc2ccccc2[nH]1 [Example 5-13]
SPECIFICITY αIIbβ3 / αvβ3 ([1]; Table 10): 38 | IC50 ([2]; Table 10): 3.1 nM

CCOCC(=O)N(Cc1ccc(C(=O)NC[C@H](NC(=O)OCc2ccccc2)C(=O)O)cc1)Cc1nc2ccccc2[nH]1 [Example 5-26]
SPECIFICITY αIIbβ3 / αvβ3 ([1]; Table 10): 91 | IC50 ([2]; Table 10): 3.5 nM

O=C(NC(CNC(=O)c1ccc(CN(CCc2nc3ccccc3[nH]2)C(=O)CCc2ccccc2)cc1)C(=O)O)OCc1ccccc1 (stereo not drawn) [Example 5-73]
Specificity αIIβ3 / αvβ3 [1]: 0.7 | IC50 ([2]; Table 14): 170 nM

CCCCOC(=O)N[C@@H](CNC(=O)c1ccc(CN(Cc2nc3ccccc3[nH]2)C(=O)NC(C)(C)C)cc1)C(=O)O [Example 5-85]
Specificity αllbβ3 / αvβ3 ([1]; Table 16): 1223 | IC50 ([2]; Table 16): 1.8 nM

O=C(O)CC(NC(=O)c1ccc(CN(Cc2nc3ccccc3[nH]2)C(=O)CCC2CCCC2)cc1)c1ccccc1 (stereo not drawn) [Example 5-69]
Specificity α11bβ3 / αvβ3 [1]: 0.4 | IC50 ([2]; Table 13): 10500 nM

CCCCOC(=O)N[C@@H](CNC(=O)c1ccc(CN(Cc2nc3ccccc3[nH]2)C(=O)Nc2ccc(F)cc2)cc1)C(=O)O [Example 5-88]
Specificity αllbβ3 / αvβ3 ([1]; Table 16): 1657 | IC50 ([2]; Table 16): 2 nM

O=C(O)CC(NC(=O)c1ccc(CNCc2nc3ccccc3[nH]2)cc1)c1ccccc1 (stereo not drawn) [Example 5-65]
Specificity α11bβ3 / αvβ3 [1]: 0.4 | IC50 ([2]; Table 13): 9230 nM

O=C(NC(CNC(=O)c1ccc(CNCCc2nc3ccccc3[nH]2)cc1)C(=O)O)OCc1ccccc1 (stereo not drawn) [Example 5-70]
Specificity αIIβ3 / αvβ3 [1]: 0.2 | IC50 ([2]; Table 14): 413 nM

CCOC(=O)CNC(=O)N(Cc1ccc(C(=O)NC[C@H](NC(=O)OCc2ccccc2)C(=O)O)cc1)Cc1nc2ccccc2[nH]1 [Example 5-45, N^3-[4-[(benzimidazol-2-yl)methyl][[(ethoxycarbonylmethyl)amino]-carbonyl]aminomethylbenzoyl]-N^2-Cbz-1-2,3-diaminopropionic acid]
SPECIFICITY αIIbβ3 / αvβ3 ([1]; Table 10): 1333 | IC50 ([2]; Table 10): 2.2 nM

O=C(N[C@H](CNC(=O)c1ccc(CNCc2nc3ccccc3[nH]2)cc1)C(=O)O)OCc1ccccc1 [Example 5-57]
Specificity αllbβ3 / αvβ3 ([1]; Table 11): 1.43 | IC50 ([2]; Table 11): 1290 nM

O=C(O)CNC(=O)N(Cc1ccc(C(=O)NC[C@H](NC(=O)OCc2ccccc2)C(=O)O)cc1)Cc1nc2ccccc2[nH]1 [Example 5-96, N^3-[4-[(Benzimidazol-2-yl)methyl] [[(carboxymethyl)amino]carbonyl]aminomethylbenzoyl]-N^2-Cbz-L-2,3-diaminopropionic acid]
Specificity αllbβ3 / αvβ3 ([1]; Table 16): 528 | IC50 ([2]; Table 16): 3.4 nM

O=C(N[C@@H](CNC(=O)c1ccc(CN(Cc2nc3cc(Cl)ccc3[nH]2)C(=O)NC2CCCCC2)cc1)C(=O)O)OCc1ccccc1 [Example 5-94]
Specificity αllbβ3 / αvβ3 ([1]; Table 16): 399 | IC50 ([2]; Table 16): 3.8 nM

CCCCOC(=O)N[C@@H](CNC(=O)c1ccc(CN(Cc2nc3ccccc3[nH]2)C(=O)NC(C)C)cc1)C(=O)O [Example 5-84]
Specificity αllbβ3 / αvβ3 ([1]; Table 16): 712 | IC50 ([2]; Table 16): 3.6 nM

CC(=O)N(CCc1nc2ccccc2[nH]1)Cc1ccc(C(=O)NCC(NC(=O)OCc2ccccc2)C(=O)O)cc1 (stereo not drawn) [Example 5-71]
Specificity αIIβ3 / αvβ3 [1]: 0.3 | IC50 ([2]; Table 14): 266 nM

COc1ccc(NC(=S)N(Cc2ccc(C(=O)NC[C@H](NC(=O)OCc3ccccc3)C(=O)O)cc2)Cc2nc3ccccc3[nH]2)cc1 [Example 5-46]
SPECIFICITY αIIbβ3 / αvβ3 ([1]; Table 10): 1065 | IC50 ([2]; Table 10): 2.7 nM

CCOc1ccc(NC(=O)N(Cc2ccc(C(=O)NC[C@H](NC(=O)OCc3ccccc3)C(=O)O)cc2)Cc2nc3ccccc3[nH]2)cc1 [Example 5-32]
SPECIFICITY αIIbβ3 / αvβ3 ([1]; Table 10): 151 | IC50 ([2]; Table 10): 6.5 nM

O=C(N[C@@H](CNC(=O)c1ccc(CN(Cc2nc3ccccc3[nH]2)C(=O)CCc2ccccc2)cc1)C(=O)O)OCc1ccccc1 [Example 5-16]
SPECIFICITY αIIbβ3 / αvβ3 ([1]; Table 10): 899 | IC50 ([2]; Table 10): 4.4 nM

O=C(N[C@@H](CNC(=O)c1ccc(CN(Cc2nc3ccccc3[nH]2)C(=O)Nc2ccc(F)cc2)cc1)C(=O)O)OCc1ccccc1 [Example 5-49]
SPECIFICITY αIIbβ3 / αvβ3 ([1]; Table 10): 504 | IC50 ([2]; Table 10): 4.2 nM

O=C(N[C@@H](CNC(=O)c1ccc(CN(Cc2nc3ccccc3[nH]2)C(=O)NC23CC4CC(CC(C4)C2)C3)cc1)C(=O)O)OCc1ccccc1 [Example 5-40]
SPECIFICITY αIIbβ3 / αvβ3 ([1]; Table 10): 288 | IC50 ([2]; Table 10): 5.7 nM

CCCCOC(=O)N[C@@H](CNC(=O)c1ccc(CN(Cc2nc3ccccc3[nH]2)C(=O)NC2CCCCC2)cc1)C(=O)O [Example 5-82]
Specificity αllbβ3 / αvβ3 ([1]; Table 16): 1259 | IC50 ([2]; Table 16): 2.2 nM
